Measured values as given in ChEMBL document CHEMBL5029155, “Design, Synthesis, and Biological Evaluation of Stable Colchicine-Binding Site Tubulin Inhibitors 6-Aryl-2-benzoyl-pyridines as Potential Anticancer Agents” (J Med Chem, 2021).
The source made the active and inactive calls. The calls are words filed in the database; no cut-off is given here.

Legend:
MDA-MB-231 = test: Antiproliferative activity against human MDA-MB-231 cells assessed as cell growth inhibition incubated for 72 hrs by MTS assay; assay type: functional, cell-based; conditions: MDA-MB-231, 72 h
MDA-MB-453 = test: Antiproliferative activity against human MDA-MB-453 cells assessed as cell growth inhibition incubated for 72 hrs by MTS assay; assay type: functional, cell-based; conditions: MDA-MB-453, 72 h
A-375 = test: Antiproliferative activity against human A-375 cells assessed as cell growth inhibition incubated for 72 hrs by MTS assay; assay type: functional, cell-based; conditions: A-375, 72 h
RPMI-7951 = test: Antiproliferative activity against human RPMI-7951 cells assessed as cell growth inhibition incubated for 72 hrs by MTS assay; assay type: functional, cell-based; conditions: RPMI-7951, 72 h
[1] = Metabolic stability in human liver microsomes assessed as intrinsic clearance in presence of NADPH regenerating system by UPLC-MS analysis; assay type: ADME, Microsome; conditions: read-out: CLH
hERG (KCNH2) = hERG (KCNH2) (Homo sapiens, UniProt Q12809); test: Inhibition of human ERG at 10 uM
CYP2C9 = CYP2C9 (Homo sapiens, UniProt P11712); test: Inhibition of CYP2C9 in human liver microsomes using diclofenac as substrate at 10 uM; assay type: ADME; conditions: probe diclofenac
CYP2C19 = CYP2C19 (Homo sapiens, UniProt P33261); test: Inhibition of CYP2C19 in human liver microsomes using omeprazole as substrate at 10 uM; assay type: ADME; conditions: probe omeprazole
CYP2D6 = CYP2D6 (Homo sapiens, UniProt P10635); test: Inhibition of CYP2D6 in human liver microsomes using dextromethorphan as substrate at 10 uM; assay type: ADME; conditions: probe dextromethorphan
Salmonella typhimurium [2] = test: Mutagenicity in Salmonella typhimurium TA98 by Ames test; assay type: toxicity, organism-based; conditions: salmonella enterica subsp. enterica serovar typhimurium
Salmonella typhimurium [3] = test: Mutagenicity in Salmonella typhimurium […] by Ames test; assay type: toxicity, organism-based; conditions: salmonella enterica subsp. enterica serovar typhimurium
[4] = Cytotoxicity against paclitaxel resistant human A-375/TxR cells measured after 72 hrs […]; assay type: functional, cell-based; conditions: A375/TxR
[5] = Cytotoxicity against paclitaxel resistant human MDA-MB-231/TxR cells measured after 72 hrs […]; assay type: functional, cell-based
M14 [6] = test: Cytotoxicity against human M14 cells measured after 72 hrs […]; assay type: functional, cell-based; conditions: M14, 72 h
M14 [7] = test: Cytotoxicity against paclitaxel resistant human M14 cells measured after 72 hrs […]; assay type: functional, cell-based; conditions: M14, 72 h
Sus scrofa = species: Sus scrofa; test: Inhibition of porcine brain tubulin polymerization assessed as inhibition of microtubule polymerization at 10 uM measured for 1 hrs by microplate reader method
A375/TxR [8] = test: Induction of cell cycle arrest in human A375/TxR cells assessed as accumulation at G2/M phase measured for 24 hrs by PI staining based flow cytometry analysis; assay type: functional
[9] = Induction of apoptosis in human A375/TxR cells assessed as apoptotic cells at 5 nM measured for 24 hrs by annexin VFITC /PI staining based analysis (reference value: […]); assay type: functional
[10] = Antitumor activity against human A375/TxR cells xenografted in SCID mouse assessed as reduction in tumor volume at 10 mg/kg, ip administered 3 times/week for 18 days; assay type: functional; parameters: scale not given: the % may be the effect or the level left; conditions: time 18 day
[11] = Antitumor activity against human A375/TxR cells xenografted in SCID mouse assessed as reduction in tumor volume at 20 mg/kg, ip administered 3 times/week for 18 days; assay type: functional; parameters: scale not given: the % may be the effect or the level left; conditions: time 18 day
[12] = Antitumor activity against human A375/TxR cells xenografted in SCID mouse assessed as tumor growth inhibition at 10 mg/kg, ip administered 3 times/week for 18 days; assay type: functional; parameters: scale not given: the % may be the effect or the level left; conditions: time 18 day
A375/TxR [13] = test: Antitumor activity against human A375/TxR cells xenografted in SCID mouse assessed as tumor necrosis at 10 to 20 mg/kg, ip by H and E staining based analysis; assay type: functional, organism-based; conditions: dose 10-20 mg/kg
A375/TxR [14] = test: Antimetastatic activity against human A375/TxR cells xenografted in SCID mouse assessed as metastatic in lungs; assay type: functional
[15] = Systemic toxicity in human A375/TxR cells xenografted in SCID mouse tumor model assessed as pathological change in liver at 10 to 20 mg/kg, ip by H and E staining based analysis; assay type: organism-based; conditions: in vivo, dose 10-20 mg/kg
[16] = Systemic toxicity in human A375/TxR cells xenografted in SCID mouse tumor model assessed as pathological change in kidney at 10 to 20 mg/kg, ip by H and E staining based analysis; assay type: organism-based; conditions: in vivo, dose 10-20 mg/kg
[17] = Systemic toxicity in human A375/TxR cells xenografted in SCID mouse tumor model assessed as pathological change in heart at 10 to 20 mg/kg, ip by H and E staining based analysis; assay type: organism-based; conditions: in vivo, dose 10-20 mg/kg
[18] = Tmax in NSG mouse at 10 mg/kg, ip; assay type: ADME, organism-based; conditions: in vivo
[19] = Apparent volume of distribution during terminal phase in NSG mouse at 10 mg/kg, ip; assay type: ADME, organism-based; conditions: in vivo, read-out: Vz/F
[20] = Induction of cell cycle arrest in human A375/TxR cells assessed as accumulation at G2/M phase at 10 nM measured for 24 hrs by PI staining based flow cytometry analysis

CYP2C9, sequence (P11712 whole entry): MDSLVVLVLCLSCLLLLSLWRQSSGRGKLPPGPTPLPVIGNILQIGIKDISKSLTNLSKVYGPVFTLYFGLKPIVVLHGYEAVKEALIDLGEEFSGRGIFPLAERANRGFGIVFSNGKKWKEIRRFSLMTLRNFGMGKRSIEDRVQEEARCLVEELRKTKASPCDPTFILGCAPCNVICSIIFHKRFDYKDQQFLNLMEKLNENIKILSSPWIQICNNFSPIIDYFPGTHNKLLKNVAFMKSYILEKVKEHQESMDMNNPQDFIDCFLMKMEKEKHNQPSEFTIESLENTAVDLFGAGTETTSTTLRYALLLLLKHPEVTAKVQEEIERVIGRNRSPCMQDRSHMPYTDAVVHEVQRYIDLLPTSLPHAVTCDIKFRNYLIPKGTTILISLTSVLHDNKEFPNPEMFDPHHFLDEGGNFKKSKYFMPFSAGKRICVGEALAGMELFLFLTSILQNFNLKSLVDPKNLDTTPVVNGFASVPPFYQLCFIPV
hERG (KCNH2), sequence (Q12809 whole entry): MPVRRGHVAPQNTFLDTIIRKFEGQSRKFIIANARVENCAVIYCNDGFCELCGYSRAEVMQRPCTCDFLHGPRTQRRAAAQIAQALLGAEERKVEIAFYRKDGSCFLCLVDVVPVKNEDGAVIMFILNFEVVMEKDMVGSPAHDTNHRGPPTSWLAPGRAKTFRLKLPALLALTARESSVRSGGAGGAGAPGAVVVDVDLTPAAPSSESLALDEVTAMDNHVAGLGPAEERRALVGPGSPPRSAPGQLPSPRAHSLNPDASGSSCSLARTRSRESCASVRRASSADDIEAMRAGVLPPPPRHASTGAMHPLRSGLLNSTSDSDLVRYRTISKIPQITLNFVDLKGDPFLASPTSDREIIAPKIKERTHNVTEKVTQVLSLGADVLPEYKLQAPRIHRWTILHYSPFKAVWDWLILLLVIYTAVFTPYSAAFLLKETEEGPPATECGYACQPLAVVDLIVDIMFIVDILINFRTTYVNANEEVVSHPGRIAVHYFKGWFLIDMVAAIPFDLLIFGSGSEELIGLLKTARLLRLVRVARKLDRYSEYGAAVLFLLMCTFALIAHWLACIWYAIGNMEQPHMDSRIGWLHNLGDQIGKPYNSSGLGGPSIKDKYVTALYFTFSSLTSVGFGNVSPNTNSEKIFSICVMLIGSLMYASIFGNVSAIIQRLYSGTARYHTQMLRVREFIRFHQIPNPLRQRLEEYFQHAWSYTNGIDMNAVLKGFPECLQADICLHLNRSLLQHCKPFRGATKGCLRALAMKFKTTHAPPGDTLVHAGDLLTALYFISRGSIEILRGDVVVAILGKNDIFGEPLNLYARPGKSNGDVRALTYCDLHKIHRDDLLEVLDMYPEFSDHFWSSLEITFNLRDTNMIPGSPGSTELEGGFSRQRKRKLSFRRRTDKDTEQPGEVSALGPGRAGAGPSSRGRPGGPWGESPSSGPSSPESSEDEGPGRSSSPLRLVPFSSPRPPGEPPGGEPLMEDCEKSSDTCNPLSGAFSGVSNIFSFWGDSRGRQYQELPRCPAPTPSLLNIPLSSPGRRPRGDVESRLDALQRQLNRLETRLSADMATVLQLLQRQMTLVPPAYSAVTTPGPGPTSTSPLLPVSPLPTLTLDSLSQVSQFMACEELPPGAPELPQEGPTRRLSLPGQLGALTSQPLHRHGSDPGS
CYP2D6, sequence (P10635 whole entry): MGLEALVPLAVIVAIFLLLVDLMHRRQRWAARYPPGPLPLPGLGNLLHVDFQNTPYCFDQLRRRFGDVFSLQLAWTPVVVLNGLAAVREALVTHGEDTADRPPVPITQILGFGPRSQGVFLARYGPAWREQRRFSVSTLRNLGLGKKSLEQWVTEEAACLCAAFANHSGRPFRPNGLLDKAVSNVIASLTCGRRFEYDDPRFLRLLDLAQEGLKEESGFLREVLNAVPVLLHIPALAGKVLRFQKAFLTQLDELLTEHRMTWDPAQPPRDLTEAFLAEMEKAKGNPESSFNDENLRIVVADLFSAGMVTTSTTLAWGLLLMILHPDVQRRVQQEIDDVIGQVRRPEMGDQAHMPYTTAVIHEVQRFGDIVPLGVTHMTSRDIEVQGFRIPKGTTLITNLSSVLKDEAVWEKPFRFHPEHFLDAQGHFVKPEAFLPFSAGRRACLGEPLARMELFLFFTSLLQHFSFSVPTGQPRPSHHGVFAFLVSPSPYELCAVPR
CYP2C19, sequence (P33261 whole entry): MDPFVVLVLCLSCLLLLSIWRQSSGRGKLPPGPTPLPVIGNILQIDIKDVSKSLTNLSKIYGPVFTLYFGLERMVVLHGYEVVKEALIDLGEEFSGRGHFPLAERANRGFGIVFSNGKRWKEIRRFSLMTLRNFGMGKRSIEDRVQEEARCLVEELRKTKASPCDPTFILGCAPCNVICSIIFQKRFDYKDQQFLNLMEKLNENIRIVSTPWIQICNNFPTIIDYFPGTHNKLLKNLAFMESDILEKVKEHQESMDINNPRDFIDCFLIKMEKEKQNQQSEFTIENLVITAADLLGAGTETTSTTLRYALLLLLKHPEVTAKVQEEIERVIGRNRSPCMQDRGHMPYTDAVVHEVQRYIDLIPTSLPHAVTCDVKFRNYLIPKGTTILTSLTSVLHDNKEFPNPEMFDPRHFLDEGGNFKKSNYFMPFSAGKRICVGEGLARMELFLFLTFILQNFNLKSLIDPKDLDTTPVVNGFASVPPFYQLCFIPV

Work on `COc1cc(C(=O)c2nc(-c3ccc(C)c(O)c3)ccc2F)cc(OC)c1OC` yielded an IC50 (MDA-MB-231) of 2.2 nM, an IC50 (MDA-MB-453) of 1.4 nM and an IC50 (A-375) of 1.8 nM. The IC50 (RPMI-7951) was 2.4 nM, the CLint scaled [1] was 42.3 mL/min/kg and the inhibition at 10 µM (hERG (KCNH2)) was 5.14%. It also gave an inhibition at 10 µM (CYP2C9) of 54.7%, an inhibition at 10 µM (CYP2C19) of 49% and an inhibition at 10 µM (CYP2D6) of 11.9%. The Activity (Salmonella typhimurium [2]) was “Non-Toxic”, the Activity (Salmonella typhimurium [3]) was “Non-Toxic” and the IC50 [4] was 5.3 nM. The IC50 [5] was 2.1 nM, the IC50 (M14 [6]) was 2.8 nM and the IC50 (M14 [7]) was 4.9 nM. The inhibition (Sus scrofa) was “Active”, the Activity (A375/TxR [8]) was “Dose-Dependent Effect” and the Activity [9] was 45.4%. The Activity [10] was 57.6%, the Activity [11] was 72.9% and the Activity [12] was 44.4%. The Activity (A375/TxR [13]) was “Active”, the Activity (A375/TxR [14]) was “Dose-Dependent Effect” and the Activity [15] was “Non-Toxic”. The Activity [16] was “Non-Toxic”, the Activity [17] was “Non-Toxic” and the Tmax [18] was 10.2 min. It also gave a Vd/F [19] of 12.3 L/kg and an Activity [20] of 62%.
